For test [1], the target named is T1, BRAF (Homo sapiens, UniProt P15056).
T1 construct: purchased Invitrogen
The test can be described thus: In vitro kinase assay (Z'-LYTE), BRAF. In kind it is biochemical. To be noted: read-out: % of inhibition of the kinase compared to the control. The essentials: (§1)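 Compounds at a single dose (100 nM; 10 μM for both ABL forms) were run in a fluorescence coupled-enzyme kinase format relying on differential protease sensitivity of phospho versus non-phospho peptide. Reaction progress was measured ratiometrically from the FRET pair.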

Test [2] addresses T2, EGFR (ErbB1) (Homo sapiens, UniProt P00533).
T2 construct: purchased Invitrogen
The test can be described thus: In vitro kinase assay (Z'-LYTE), EGFR (ErbB1). The settings on record: read-out: % of inhibition of the kinase compared to the control. The format is biochemical. The essentials: as §1

Test [3] has as its target T3, EGFR (ErbB1) T790M L858R (Homo sapiens, UniProt P00533, L858R/T790M).
T3 construct: purchased Invitrogen
The test is described as follows: In vitro kinase assay (Z'-LYTE), EGFR (ErbB1) T790M L858R. The format is biochemical. The settings on record: read-out: % of inhibition of the kinase compared to the control. Summed up: as §1

In test [4] the target is T4, FGFR2 (Homo sapiens, UniProt P21802).
T4 construct: purchased Invitrogen
The test is described as follows: In vitro kinase assay (Z'-LYTE), FGFR2. In kind it is biochemical. To be noted: read-out: % of inhibition of the kinase compared to the control. Summed up:
as §1

For test [5], the target named is T5, KDR (VEGFR2) (Homo sapiens, UniProt P35968).
T5 construct: purchased Invitrogen
The test can be described thus: In vitro kinase assay (Z'-LYTE), KDR (VEGFR2). The format is biochemical. The settings on record: read-out: % of inhibition of the kinase compared to the control. The essentials:
as §1

Test [6] addresses T6, PDGFRA (PDGFR alpha) (Homo sapiens, UniProt P16234).
T6 construct: purchased Invitrogen
The test can be described thus: In vitro kinase assay (Z'-LYTE), PDGFRA. The settings on record: read-out: % of inhibition of the kinase compared to the control. The format is biochemical. The essentials: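 Z'-LYTE, HEPES pH 7.5/MgCl2/EGTA/BRIJ-35 buffer, 1% DMSO; cpd 100 nM (ABL, ABL T315I: 10 μM); ratiometric FRET read-out after protease development; % inhibition.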

The target of test [7] is T7, SRC (Homo sapiens, UniProt P12931).
T7 construct: purchased Invitrogen
The test is described as follows: In vitro kinase assay (Z'-LYTE), SRC. In kind it is biochemical. The settings on record: read-out: % of inhibition of the kinase compared to the control. The essentials:
as §1

Test [8] deals with A549 cell line. The test is described as follows: In vitro cell proliferation assay (MTT), A549. In kind it is cell-based. To be noted: Homo sapiens, read-out: EC50, anti-proliferative activity. Summed up: (§2)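 Duplicate wells of each line were exposed for 72 hr to 10 nM–3 μM compound. HRMEC were plated at 1×10^4 cells per well, cancer cells at 5×10^3.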
Test [9] relates to HepG2 cell line. The test can be described thus: In vitro cell proliferation assay (MTT), HepG2. The format is cell-based. To be noted: Homo sapiens, HepG2, 72 h; read-out: EC50, anti-proliferative activity. Summed up: as §2
For test [10], the system named is HuCCT1 cell line. The test can be described thus: In vitro cell proliferation assay (MTT), HuCCT1. The format is cell-based. The settings on record: Homo sapiens, read-out: EC50, anti-proliferative activity. The essentials: as §2
In test [11] the test system is HuH6 Clone 5 cell line. The test can be described thus: In vitro cell proliferation assay (MTT), HuH6 Clone 5. The format is cell-based. The settings on record: read-out: EC50, anti-proliferative activity. The essentials: as §2
For test [12], the system named is HuH7 cell line. The test is described as follows: In vitro cell proliferation assay (MTT), HuH7. The format is cell-based. To be noted: Homo sapiens, Huh-7, 72 h; read-out: EC50, anti-proliferative activity. Summed up:
as §2

For test [13], the system named is HT29 cell line. The test is described as follows: In vitro cell proliferation assay (MTT), HT29. In kind it is cell-based. To be noted: Homo sapiens, read-out: EC50, anti-proliferative activity. The essentials: as §2
Test [14] has as its system BxPC-3 cell line. The test is described as follows: In vitro cell proliferation assay (MTT), BxPC-3. In kind it is cell-based. The settings on record: Homo sapiens, BXPC-3, 72 h; read-out: EC50, anti-proliferative activity. The protocol: (§3) 2) In Vitro Cell Proliferation Assays (Table 22 to Table 35)
(§4) Cancer cell lines (5×10^3 cells per well) or HUVEC (1×10^4 cells per well) or HRMEC (1×10^4 cells per well) were distributed in 96-well plates and incubating in duplicate with escalating concentrations (10 nM to 3 μM) of compounds for 72 hr. Cell proliferation was measured using MTT (3[4,5-dimethylthiazol-2-yl]-2,5-diphenyltetrazolium bromide).

Test [15] relates to H1975 cell line. The test can be described thus: In vitro cell proliferation assay (MTT), H1975. In kind it is cell-based. The settings on record: Homo sapiens, read-out: EC50, anti-proliferative activity. The essentials: as §2
The subject of test [16] is HUVEC. The test is described as follows: In vitro cell proliferation assay (MTT), HUVEC. The format is cell-based. To be noted: Homo sapiens, 72 h, read-out: EC50, anti-proliferative activity. The essentials:
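Anti-proliferative effects on human umbilical vein endothelial cells were assessed by an MTT (3[4,5-dimethylthiazol-2-yl]-2,5-diphenyltetrazolium bromide) readout. Cells (1×10^4 cells per well) in 96-well plates were incubated in duplicate for 72 hr with escalating test compound concentrations spanning 10 nM to 3 μM.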

In test [17] the test system is PC3 cell line. The test is described as follows: In vitro cell proliferation assay (MTT), PC3. In kind it is cell-based. The settings on record: Homo sapiens, PC-3, 72 h; read-out: EC50, anti-proliferative activity. As for the experimental part: as §3, §4
Test [18] deals with Caki-2. The test can be described thus: In vitro cell proliferation assay (MTT), Caki-2. The settings on record: Homo sapiens, read-out: EC50, anti-proliferative activity. In kind it is cell-based. The protocol: as §3, §4
Test [19] deals with MDA-MB-231 cell line. The test can be described thus: In vitro cell proliferation assay (MTT), MDA-MB-231. In kind it is cell-based. To be noted: Homo sapiens, MDA-MB-231, 72 h; read-out: EC50, anti-proliferative activity. The essentials: as §2
Test [20] concerns HeLa cell line. The test can be described thus: In vitro cell proliferation assay (MTT), HeLa. The format is cell-based. To be noted: Homo sapiens, 72 h, read-out: EC50, anti-proliferative activity. Summed up: as §2
Test [21] concerns HRMEC cells. The test can be described thus: In vitro cell proliferation assay (MTT), HRMEC. In kind it is cell-based. The settings on record: read-out: EC50, anti-proliferative activity. The protocol:
as §3, §4

The test system of test [22] is HepG2 cells. The test is described as follows: Human hepatocellular carcinoma mouse model (HepG2 xenograft). In kind it is in vivo, athymic nude male mice. The settings on record: 20 mg/kg q.d. per os for 15 consecutive days; for Anti-tumor activity (Tumor Growth Inhibition—TGI): mice, HepG2 xenograft, end of study vs vehicle. The protocol: 3) In Vivo Studies (Table 36)
Human hepatocellular carcinoma mouse model was prepared by subcutaneously implanting HepG2 cells (1×10^7 cell/mL in sterile PBS), into the right flank of athymic nude male mice (HSD, 6-7 weeks old). When the tumor volume reached approximately 200 mm^3, mice were assigned randomly to either vehicle alone or ORB compounds treatment groups (six mice per group). Mice were treated with either vehicle (PEG400) or OR0720, OR0721, OR0811 (20 mg/kg q.d.; per os for 15 consecutive days).
Tumor volumes in mm^3 were determined three times a week with a digital caliper and calculated using the following formula: Tumor Volume (mm)=length (mm)×width (mm)×width (mm)×½. Body weight was measured three times a week, and mice were observed daily for monitoring signs of stress to detect possible toxicities. One-way ANOVA was used for statistical comparisons. Data were analyzed with Prism 5.0 b (GraphPad Software) by one-way ANOVA with Bonferroni post hoc. Tumor Growth Inhibition (TGI) is calculated as the percent decrease of tumor growth at the end of the study in the ORB compounds treatment groups in comparison to the vehicle alone treatment group.
(In xenograft studies the graft and the host belong to different species.)

Experimental findings from patent US9403823B2, “Protein kinase inhibitors” (ORIBASE PHARMA, priority 2012, dated 2016) are described below.

Read-outs that look alike come from different tables or passages of the source. Marks after values point to notes of the source that are not given here.

For orientation: inhibition means the share of the control response that was lost under treatment. A word on the EC50: it is the concentration needed to bring the measured effect to its halfway point.

T7 sequence (P12931 whole entry): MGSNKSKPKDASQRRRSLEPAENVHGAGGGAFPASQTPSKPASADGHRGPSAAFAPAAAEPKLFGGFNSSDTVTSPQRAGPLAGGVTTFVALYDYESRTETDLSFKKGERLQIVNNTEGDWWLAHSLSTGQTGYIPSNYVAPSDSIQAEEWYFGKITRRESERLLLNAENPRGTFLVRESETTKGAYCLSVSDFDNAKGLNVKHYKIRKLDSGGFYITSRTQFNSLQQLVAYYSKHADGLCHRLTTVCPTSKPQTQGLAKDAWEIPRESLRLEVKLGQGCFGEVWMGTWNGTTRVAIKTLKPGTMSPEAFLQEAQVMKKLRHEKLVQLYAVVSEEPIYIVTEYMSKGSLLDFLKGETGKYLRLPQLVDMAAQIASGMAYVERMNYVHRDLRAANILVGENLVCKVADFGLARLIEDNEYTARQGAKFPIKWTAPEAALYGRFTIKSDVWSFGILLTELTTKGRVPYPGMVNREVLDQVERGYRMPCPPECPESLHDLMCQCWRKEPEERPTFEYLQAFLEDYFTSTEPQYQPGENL
T1 sequence (P15056 whole entry): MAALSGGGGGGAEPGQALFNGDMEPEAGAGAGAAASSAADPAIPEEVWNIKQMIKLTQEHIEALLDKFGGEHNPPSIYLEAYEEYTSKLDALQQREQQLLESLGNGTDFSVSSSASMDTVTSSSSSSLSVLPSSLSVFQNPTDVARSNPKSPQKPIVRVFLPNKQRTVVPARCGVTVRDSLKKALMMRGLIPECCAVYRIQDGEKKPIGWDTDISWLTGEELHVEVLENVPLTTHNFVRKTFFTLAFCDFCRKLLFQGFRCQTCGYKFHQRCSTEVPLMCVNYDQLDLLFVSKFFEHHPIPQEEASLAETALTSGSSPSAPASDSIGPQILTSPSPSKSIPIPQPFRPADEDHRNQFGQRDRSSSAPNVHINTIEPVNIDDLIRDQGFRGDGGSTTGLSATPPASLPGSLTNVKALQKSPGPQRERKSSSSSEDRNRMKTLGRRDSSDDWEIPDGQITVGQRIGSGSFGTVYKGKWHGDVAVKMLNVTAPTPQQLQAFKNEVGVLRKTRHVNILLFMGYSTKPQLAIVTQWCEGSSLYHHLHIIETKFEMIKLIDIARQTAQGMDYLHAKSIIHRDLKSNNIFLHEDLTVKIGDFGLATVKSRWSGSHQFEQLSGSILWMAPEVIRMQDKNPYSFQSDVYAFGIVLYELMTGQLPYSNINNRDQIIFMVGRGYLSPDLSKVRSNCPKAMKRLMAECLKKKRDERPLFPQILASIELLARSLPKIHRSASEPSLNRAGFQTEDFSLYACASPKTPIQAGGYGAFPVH
T2 sequence (P00533 25-1210): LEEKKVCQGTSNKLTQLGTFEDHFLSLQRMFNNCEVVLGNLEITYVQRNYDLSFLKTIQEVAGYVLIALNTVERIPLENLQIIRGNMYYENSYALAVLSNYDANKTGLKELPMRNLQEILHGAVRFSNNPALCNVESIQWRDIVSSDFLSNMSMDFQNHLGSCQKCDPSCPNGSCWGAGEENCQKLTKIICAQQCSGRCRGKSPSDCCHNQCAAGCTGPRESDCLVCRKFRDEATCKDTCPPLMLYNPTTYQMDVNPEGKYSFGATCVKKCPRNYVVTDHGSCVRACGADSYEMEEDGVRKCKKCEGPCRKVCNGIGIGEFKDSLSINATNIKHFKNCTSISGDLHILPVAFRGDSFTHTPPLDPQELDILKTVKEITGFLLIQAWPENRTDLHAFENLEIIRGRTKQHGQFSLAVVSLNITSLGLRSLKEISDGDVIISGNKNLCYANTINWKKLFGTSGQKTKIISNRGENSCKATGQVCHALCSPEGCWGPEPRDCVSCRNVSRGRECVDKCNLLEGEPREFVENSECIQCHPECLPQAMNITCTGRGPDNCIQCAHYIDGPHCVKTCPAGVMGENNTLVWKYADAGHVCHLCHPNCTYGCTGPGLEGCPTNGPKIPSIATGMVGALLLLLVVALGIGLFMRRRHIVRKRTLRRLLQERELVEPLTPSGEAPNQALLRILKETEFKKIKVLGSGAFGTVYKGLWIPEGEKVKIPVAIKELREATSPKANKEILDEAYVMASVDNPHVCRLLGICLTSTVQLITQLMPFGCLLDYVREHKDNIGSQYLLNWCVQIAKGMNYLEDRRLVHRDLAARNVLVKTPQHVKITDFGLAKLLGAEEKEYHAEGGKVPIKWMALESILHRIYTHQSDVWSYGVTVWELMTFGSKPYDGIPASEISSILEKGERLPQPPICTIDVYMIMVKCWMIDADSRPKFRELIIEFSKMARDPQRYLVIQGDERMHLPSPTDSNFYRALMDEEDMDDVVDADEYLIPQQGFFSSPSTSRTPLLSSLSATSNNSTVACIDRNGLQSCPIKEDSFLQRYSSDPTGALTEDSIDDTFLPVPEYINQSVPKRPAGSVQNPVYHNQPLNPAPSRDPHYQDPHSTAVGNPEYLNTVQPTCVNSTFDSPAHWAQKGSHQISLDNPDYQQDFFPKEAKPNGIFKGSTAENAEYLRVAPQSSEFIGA
T3 sequence (P00533 25-1210 T790M/L858R): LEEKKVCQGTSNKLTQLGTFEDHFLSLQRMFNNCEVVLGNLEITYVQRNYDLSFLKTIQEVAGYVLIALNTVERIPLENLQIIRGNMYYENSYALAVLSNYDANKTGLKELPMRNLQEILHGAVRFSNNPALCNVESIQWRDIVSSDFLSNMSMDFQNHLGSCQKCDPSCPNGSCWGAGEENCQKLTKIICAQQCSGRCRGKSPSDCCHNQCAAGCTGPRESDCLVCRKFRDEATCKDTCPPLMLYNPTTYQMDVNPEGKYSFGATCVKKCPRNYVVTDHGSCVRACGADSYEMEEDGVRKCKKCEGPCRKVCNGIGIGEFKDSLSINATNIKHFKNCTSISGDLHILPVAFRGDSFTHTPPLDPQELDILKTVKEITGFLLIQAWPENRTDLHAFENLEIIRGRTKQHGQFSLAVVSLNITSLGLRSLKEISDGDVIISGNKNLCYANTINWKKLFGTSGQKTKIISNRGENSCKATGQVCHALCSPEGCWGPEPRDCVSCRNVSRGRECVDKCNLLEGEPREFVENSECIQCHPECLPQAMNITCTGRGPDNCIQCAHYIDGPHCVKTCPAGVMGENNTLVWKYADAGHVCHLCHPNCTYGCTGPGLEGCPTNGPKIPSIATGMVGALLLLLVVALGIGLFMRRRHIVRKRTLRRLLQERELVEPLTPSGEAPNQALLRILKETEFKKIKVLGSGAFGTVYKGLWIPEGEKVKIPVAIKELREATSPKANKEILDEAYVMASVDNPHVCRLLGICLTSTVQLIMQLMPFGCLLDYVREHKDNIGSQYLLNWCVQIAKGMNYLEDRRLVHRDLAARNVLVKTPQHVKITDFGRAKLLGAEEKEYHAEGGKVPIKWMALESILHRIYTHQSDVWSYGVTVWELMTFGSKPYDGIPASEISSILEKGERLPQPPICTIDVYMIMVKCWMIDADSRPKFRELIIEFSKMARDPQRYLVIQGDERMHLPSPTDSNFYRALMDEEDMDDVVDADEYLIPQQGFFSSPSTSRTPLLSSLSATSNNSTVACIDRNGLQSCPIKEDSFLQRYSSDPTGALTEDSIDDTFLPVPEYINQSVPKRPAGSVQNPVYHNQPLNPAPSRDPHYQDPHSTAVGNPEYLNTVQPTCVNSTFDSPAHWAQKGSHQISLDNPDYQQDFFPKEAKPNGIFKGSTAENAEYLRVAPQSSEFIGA
T6 sequence (P16234 24-1089): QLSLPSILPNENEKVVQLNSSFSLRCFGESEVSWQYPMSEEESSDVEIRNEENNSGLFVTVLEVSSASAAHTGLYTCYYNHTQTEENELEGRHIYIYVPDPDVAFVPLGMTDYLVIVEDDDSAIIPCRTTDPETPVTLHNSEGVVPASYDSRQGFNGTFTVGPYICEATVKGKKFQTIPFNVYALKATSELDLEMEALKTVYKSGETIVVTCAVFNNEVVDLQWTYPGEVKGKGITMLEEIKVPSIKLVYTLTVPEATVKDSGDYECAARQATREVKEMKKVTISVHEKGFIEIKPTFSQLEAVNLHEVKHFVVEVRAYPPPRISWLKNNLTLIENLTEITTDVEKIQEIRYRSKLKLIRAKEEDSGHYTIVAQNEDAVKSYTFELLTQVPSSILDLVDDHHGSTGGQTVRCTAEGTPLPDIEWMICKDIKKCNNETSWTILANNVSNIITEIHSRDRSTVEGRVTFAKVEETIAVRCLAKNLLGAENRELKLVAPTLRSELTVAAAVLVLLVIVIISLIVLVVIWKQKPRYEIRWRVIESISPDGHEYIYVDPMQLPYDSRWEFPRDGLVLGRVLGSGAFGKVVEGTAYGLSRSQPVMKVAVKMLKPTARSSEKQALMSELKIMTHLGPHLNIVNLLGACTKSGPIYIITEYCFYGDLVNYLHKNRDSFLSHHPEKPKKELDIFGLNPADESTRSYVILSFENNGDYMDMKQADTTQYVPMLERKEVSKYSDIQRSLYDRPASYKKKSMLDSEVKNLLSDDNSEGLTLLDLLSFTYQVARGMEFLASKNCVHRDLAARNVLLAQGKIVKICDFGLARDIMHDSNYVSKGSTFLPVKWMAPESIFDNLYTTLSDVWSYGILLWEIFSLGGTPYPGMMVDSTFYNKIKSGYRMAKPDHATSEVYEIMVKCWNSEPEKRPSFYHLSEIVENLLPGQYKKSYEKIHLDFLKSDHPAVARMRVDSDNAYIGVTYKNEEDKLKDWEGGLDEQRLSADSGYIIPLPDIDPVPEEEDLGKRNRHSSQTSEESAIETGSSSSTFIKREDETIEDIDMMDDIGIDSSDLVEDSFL

As for `CC(=O)c1cc2cc(NCc3cc(NC(=O)c4ccc(CN5CCN(C)CC5)c(C(F)(F)F)c4)ccc3C)cnc2[nH]1` [OR0720, N-{3-[(2-Acetyl-1H-pyrrolo[2,3-b]pyridin-5-ylamino)-methyl]-4-methyl-phenyl}-4-(4-methyl-piperazin-1-ylmethyl)-3-trifluoromethyl-benzamide], the inhibition at 0.1 µM in test [1], in test [2], in test [3], in test [4], in test [5] and in test [6] was at least 50% each time. Further, the inhibition at 0.1 µM in [7] was at least 50%. The EC50 in test [8] (A549, 72 h) was at most 100 nM; in [9], at most 100 nM; in [10] (HuCCT-1, 72 h), 100 to 1000 nM; in test [11] (HUH-6-clone5, 72 h), 100 to 1000 nM; in test [12], 100 to 1000 nM; in [13] (HT-29, 72 h), at most 100 nM. For the same molecule, the EC50 is at most 100 nM in [14]; 100 to 1000 nM in test [15] (NCI-H1975, 72 h); at most 100 nM in [16]; at most 100 nM in test [17]; 100 to 1000 nM in test [18] (CAKI-2, 72 h); at most 100 nM in test [19]. For the same molecule, the EC50 in test [20] was 100 to 1000 nM; in [21] (72 h), at most 100 nM. The “tumor growth in xenografted mice bearing human hepatocellular carcinoma tumors” value in test [22] is given as “significantly induced a decrease of tumor growth”. Moreover, the “Anti-tumor activity (Tumor Growth Inhibition—TGI)” value in test [22] is on record as 66%*.

As for `CC(=O)c1cc2cc(NCc3cc(NC(=O)c4cncc(C(F)(F)F)c4)ccc3C)cnc2[nH]1` [OR0721, N-{3-[(2-Acetyl-1H-pyrrolo[2,3-b]pyridin-5-ylamino)-methyl]-4-methyl-phenyl}-5-trifluoromethyl-nicotinamide], the inhibition at 0.1 µM in test [1] is at least 50%; in test [2], below 50%; in test [3], below 50%; in test [4] it was below 50%; in [5] it was at least 50%; in [6] it was at least 50%. Besides, in test [7], the inhibition at 0.1 µM was at least 50%. Also, the EC50 in test [8] (A549, 72 hr, MTT) was at least 1000 nM; in [9] it was at most 100 nM; in test [10] (HuCCT-1, HuCCT1, 72 hr, MTT) it was at least 1000 nM; in [11] (HUH-6-clone5, HuH6 Clone 5, 72 hr, MTT), at least 1000 nM; in test [12], 100 to 1000 nM; in [13] (HT-29, HT29, 72 hr, MTT) it was at least 1000 nM. The EC50 is 100 to 1000 nM in test [14]; at least 1000 nM in test [15] (NCI-H1975, H1975, 72 hr, MTT); 100 to 1000 nM in test [16]; 100 to 1000 nM in test [17]; at least 1000 nM in test [18] (Caki-2, 72 hr, MTT); 100 to 1000 nM in test [19]. For the same molecule, in [21] (72 hr, MTT), the EC50 is at least 1000 nM. Further, in test [22], the “tumor growth in xenografted mice bearing human hepatocellular carcinoma tumors” value is given as “significantly induced a decrease of tumor growth”. For the same molecule, in test [22], the “Anti-tumor activity (Tumor Growth Inhibition—TGI)” value was found to be 54%*.
